Experimental data as given in patent publication US20240252456A1, “ORAL COMPOSITION, SKIN COSMETIC AND HAIR COSMETIC” (MARUZEN PHARMACEUTICALS CO., LTD., priority 2021, published 2024).

Assays:
OCLN mRNA = assay: Occludin (OCLN) mRNA expression promotive action test; type: cell-based, human; settings: NHEK, 24 hours, corrected with GAPDH
Method: (§1) Normal human neonatal epidermal keratinocytes (NHEK) were precultured using normal human epidermal keratinocyte growth medium (KGM), and the cells were collected by a trypsin treatment. The collected cells were diluted with KGM to a cell density of 15×10^4 cells/mL, then seeded with 2 mL portions in a 6-well plate (30×10^4 cells/well), and cultured overnight under conditions of 37° C. and 5% CO2. After culturing, the medium was replaced with normal human epidermal keratinocyte basal medium (KBM, the above KGM without addition of growth additives (hEGF, BPE, insulin, antibacterial agents, hydrocortisone)), and culturing was further performed for 24 hours.
After culturing for 24 hours, the medium was removed, and 2 mL of each of test samples (Samples 1 and 3, see Table 20 below for final concentrations) dissolved in KBM was added to each well, and culturing was performed under conditions of 37° C. and 5% CO2 for 24 hours. As a control, culturing was performed in the same manner using KBM to which no sample was added. After culturing, the medium was removed, total RNA was extracted using ISOGEN II (available from NIPPON GENE CO., LTD.), each RNA amount was measured using a spectrophotometer, and the total RNA was prepared so as to be 150 ng/μL.
For OCLN and GAPDH as an internal standard, the expression levels of mRNA were measured using the above total RNA as a template. Detection was performed through a two-step real-time RT-PCR reaction using a real-time PCR device, Thermal Cycler Dice Real Time System III (available from Takara Bio Inc.), with PrimeScript™ RT Master Mix (Perfect Real Time) (available from Takara Bio Inc.) and TB Green® Fast qPCR Mix (available from Takara Bio Inc.). Primers available from Takara Bio Inc. were used. The expression level of OCLN mRNA was obtained as a value corrected with a value of GAPDH based on total RNA preparations prepared from cells cultured “with test sample addition” and “without sample addition.” From the obtained values, the OCLN mRNA expression promotion rate (%) was calculated using the following equation. […]

CLDN1 mRNA = assay: Claudin-1 (CLDN1) mRNA expression promotive action test; type: cell-based, human; settings: NHEK, 24 hours, corrected with GAPDH
Method: as §1
After culturing for 24 hours, the medium was removed, and 2 mL of each of test samples (Samples 1 and 3, see Table 19 below for final concentrations) dissolved in KBM was added to each well, and culturing was performed under conditions of 37° C. and 5% CO2 for 24 hours. As a control, culturing was performed in the same manner using KBM to which no sample was added. After culturing, the medium was removed, total RNA was extracted using ISOGEN II (available from NIPPON GENE CO., LTD.), each RNA amount was measured using a spectrophotometer, and the total RNA was prepared so as to be 150 ng/μL.
For CLDN1 and GAPDH as an internal standard, the expression levels of mRNA were measured using the above total RNA as a template. Detection was performed through a two-step real-time RT-PCR reaction using a real-time PCR device, Thermal Cycler Dice Real Time System III (available from Takara Bio Inc.), with PrimeScript™ RT Master Mix (Perfect Real Time) (available from Takara Bio Inc.) and TB Green® Fast qPCR Mix (available from Takara Bio Inc.). Primers available from Takara Bio Inc. were used. The expression level of CLDN1 mRNA was obtained as a value corrected with a value of GAPDH based on total RNA preparations prepared from cells cultured “with test sample addition” and “without sample addition.” From the obtained values, the CLDN1 mRNA expression promotion rate (%) was calculated using the following equation. […]

[1] = system: Normal human dermal fibroblasts (NB1RGB); assay: Elastin production promotive action test; type: cell-based; settings: 5 days
Method: Normal human dermal fibroblasts (NB1RGB) were cultured using Dulbecco's modified Eagle's medium (DMEM) containing 10% FBS, and then the cells were collected by a trypsin treatment. The collected cells were diluted with the above medium to a cell density of 2.2×10^5 cells/mL, then seeded with 100 μL per well in a 96-well microplate, and cultured overnight.
After the culturing was completed, the medium was removed, and 150 μL of each of test samples (Samples 2 and 3, see Table 7 below for final concentrations) dissolved in DMEM containing 0.25% FBS was added to each well, and culturing was performed for 5 days. As a control, culturing was performed in the same manner using DMEM containing 0.25% FBS to which no sample was added. After the culturing was completed, the supernatant was recovered, and the amount of elastin released in the culture supernatant was measured by ELISA method. From the measurement results, the elastin production promotion rate (%) was calculated using the following equation.
Terms in the equation represent the following respective ones. • A: Elastin amount with test sample addition • B: Elastin amount without sample addition

[2] = system: Normal human dermal fibroblasts (NB1RGB); assay: Hyaluronic acid production promotive action test; type: cell-based; settings: 3 days, A/B×100 vs no sample
Method: Normal human dermal fibroblasts (NB1RGB) were cultured using Dulbecco's modified Eagle's medium (DMEM) containing 10% FBS, and then the cells were collected by a trypsin treatment. The collected cells were diluted with DMEM containing 0.25% FBS to a cell density of 1.6×10^5 cells/mL, then seeded with 100 μL per well in a 96-well plate, and cultured overnight.
After the culturing was completed, 100 μL of each of test samples (Samples 1 and 2, see Table 9 below for final concentrations) dissolved in DMEM containing 0.25% FBS was added to each well, and culturing was performed for 3 days. As a control, culturing was performed in the same manner using DMEM containing 0.25% FBS to which no sample was added. After the culturing was completed, the amount of hyaluronic acid in the medium of each well was measured by a sandwich method using hyaluronic acid binding protein (HABP). From the obtained results, the hyaluronic acid production promotion rate (%) was calculated using the following equation.
Hyaluronic acid production promotion rate (%)=A/B×100
Terms in the equation represent the following respective ones. • A: Hyaluronic acid amount with test sample addition • B: Hyaluronic acid amount without sample addition

Compound	OCLN mRNA expression promotion rate (OCLN mRNA; 25 μmol/L)	CLDN1 mRNA expression promotion rate (CLDN1 mRNA; 25 μmol/L)	Elastin production promotion rate ([1]; 62.5 μmol/L)	Elastin production promotion rate ([1]; 250 μmol/L)	Elastin production promotion rate ([1]; 15.6 μmol/L)	Hyaluronic acid production promotion rate ([2]; 50 μmol/L)	Hyaluronic acid production promotion rate ([2]; 100 μmol/L)	Hyaluronic acid production promotion rate ([2]; 200 μmol/L)	OCLN mRNA expression promotion rate (OCLN mRNA; 100 μmol/L)	CLDN1 mRNA expression promotion rate (CLDN1 mRNA; 100 μmol/L)	Hyaluronic acid production promotion rate ([2]; 25 μmol/L)
O=C(O)CCc1ccccc1 [Sample 3, 3-phenylpropionic acid]	141.5%	125.5%	174.0%	239.0%	–	–	–	–	–	–	–
O=C(O)CCc1ccc(O)cc1 [Sample 2, 3-(4-Hydroxyphenyl)propionic acid]	–	–	147.6%	189.3%	145.4%	121.8%	119.3%	111.7%	–	–	–
O=C(O)CCc1ccc(O)c(O)c1 [Sample 1, 3,4-Dihydroxyhydrocinnamic acid]	209.9%	256.6%	–	–	–	–	–	–	557.3%	568.6%	124.2%
